# From PubChem BioAssay (NCI)
#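 Following 48 hours of exposure in 96-well plates, responses at five concentrations were used to interpolate endpoints linearly. TGI marks complete inhibition of growth.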
# Assays:
# Experiment in all cases: DTP human tumour cell line panel, 48 h
# [1] = system: DU-145 prostate
# [2] = system: UACC-257 melanoma
# [3] = system: OVCAR-4 ovarian
# [4] = system: SK-OV-3 ovarian
# [5] = system: HS 578T breast
# [6] = system: RPMI-8226 leukemia
# [7] = system: SN12C renal
# [8] = system: HOP-62 NSCLC
# [9] = system: IGROV1 ovarian
# [10] = system: UO-31 renal
# [11] = system: NCI-H23 lung
# [12] = system: CAKI-1 renal
# [13] = system: MALME-3M melanoma
# [14] = system: HT29 colon
# [15] = system: SK-MEL-28 melanoma
# [16] = system: COLO 205 colon
# [17] = system: RXF 393 renal
# [18] = system: HCT-116 colon
# [19] = system: OVCAR-3 ovarian
# [20] = system: SR leukemia
SMILES,TGI [1],TGI [2],TGI [3],TGI [4],TGI [5],TGI [6],TGI [7],TGI [8],TGI [9],TGI [10],TGI [11],TGI [12],TGI [13],TGI [14],TGI [15],TGI [16],TGI [17],TGI [18],TGI [19],TGI [20]
CN(C)C(=C1c2cc([N+](=O)[O-])ccc2-c2ccc([N+](=O)[O-])cc21)N(C)C,> 100 µM,> 100 µM,> 100 µM,> 100 µM,> 100 µM,25.3 µM,> 100 µM,> 100 µM,> 100 µM,> 100 µM,> 100 µM,> 100 µM,> 100 µM,> 100 µM,> 100 µM,> 100 µM,> 100 µM,> 100 µM,> 100 µM,
O=C1N[C@@H]([C@H](CCCCCO)OC(=O)c2ccccc2)CO1,> 100 µM,> 100 µM,> 100 µM,> 100 µM,> 100 µM,> 100 µM,> 100 µM,> 100 µM,> 100 µM,> 100 µM,,> 100 µM,,> 100 µM,> 100 µM,,> 100 µM,> 100 µM,> 100 µM,> 100 µM
COc1ccc(C2NC3=C(CCCC3)C3(C#N)C(=O)N=C(N)C23C#N)cc1 (centres undefined),> 100 µM,> 100 µM,> 100 µM,> 100 µM,> 100 µM,> 100 µM,> 100 µM,> 100 µM,> 100 µM,> 100 µM,> 100 µM,> 100 µM,> 100 µM,> 100 µM,> 100 µM,> 100 µM,> 100 µM,> 100 µM,,
O=C(NCCNCCO)N/N=C/c1ccc([N+](=O)[O-])cc1,> 100 µM,> 100 µM,,> 100 µM,> 100 µM,,> 100 µM,> 100 µM,> 100 µM,> 100 µM,> 100 µM,> 100 µM,> 100 µM,> 100 µM,> 100 µM,> 100 µM,,> 100 µM,> 100 µM,> 100 µM
N#Cc1c2c([nH]c(=O)c1C#N)CCCC2,> 100 µM,> 100 µM,,> 100 µM,> 100 µM,,> 100 µM,,> 100 µM,> 100 µM,> 100 µM,> 100 µM,> 100 µM,> 100 µM,> 100 µM,> 100 µM,> 100 µM,> 100 µM,> 100 µM,
CN1C(=O)C(O)CC1c1cccc(F)c1 (centres undefined),> 100 µM,> 100 µM,> 100 µM,> 100 µM,,> 100 µM,> 100 µM,> 100 µM,> 100 µM,> 100 µM,> 100 µM,> 100 µM,> 100 µM,> 100 µM,> 100 µM,> 100 µM,> 100 µM,> 100 µM,> 100 µM,> 100 µM
Cc1ccc(-n2cnc3c(N/N=C4\SCC(=O)N4c4ccccc4)ncnc32)cc1,17.5 µM,18.3 µM,21.2 µM,27.7 µM,26.6 µM,,11.7 µM,28.9 µM,15 µM,17.9 µM,14 µM,18.9 µM,16.3 µM,15 µM,11.4 µM,17.1 µM,5.8 µM,13 µM,11.5 µM,
